Reference: patent US20070258986A1, “Targeted Delivery System for Bioactive Agents” (Govt of the US as represented by the secretary,, priority 2003, published 2007)

Key:
[1] = biological target: T1, Y289L GalT (Bos taurus, UniProt P08037, Y289L); test: Labeling of O-GlcNAc glycosylated CREB protein with analogue 1 and Y289L GalT, aminooxy biotin, streptavidin-HRP blot; type: biochemical, bovine; conditions: recombinant CREB from Sf9 cells, analogue 1 1 mM, 12 h at 4° C., then aminooxy biotin
T1 construct: the catalytic domain of GalT has a tyrosine exchanged with another amino acid; made in house
T1 sequence (P08037 130-402 Y289L limits assumed): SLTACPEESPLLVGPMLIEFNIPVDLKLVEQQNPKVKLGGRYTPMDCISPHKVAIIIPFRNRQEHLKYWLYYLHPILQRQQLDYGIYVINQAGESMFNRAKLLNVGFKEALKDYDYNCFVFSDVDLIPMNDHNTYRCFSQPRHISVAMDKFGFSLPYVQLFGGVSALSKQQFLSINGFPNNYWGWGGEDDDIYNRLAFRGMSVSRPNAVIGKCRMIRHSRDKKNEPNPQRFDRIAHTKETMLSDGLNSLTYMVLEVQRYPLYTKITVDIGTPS
Method: Labeling of CREB protein: Recombinant O-GlcNAc glycosylated CREB was generated by coexpression of CREB with O-GlcNAc glycosyltransferase in Sf9 cells as described previously (Lamarre-Vincent et al., 2003). 500 ng of CREB in 20 mM HEPES pH 7.9, 100 mM KCl, 0.2 mM EDTA, 15% glycerol was added to 50 mM MOPS pH 6.45 containing 5 mM MnCl2 and 0.25 mU/μL alkaline phosphatase (Unverzagt et al., 1990). Analogue 1 and Y289L GalT were then added to final concentrations of 1 mM and 40 ng/μL, respectively. Control reactions without enzyme or analogue 1 were treated identically. Following incubation at 12 h at 4° C., the reactions were diluted 5-fold into PBS containing protease inhibitors (5 μg/mL pepstatin, 5 μg/mL chymostatin, 20/μg/mL leupeptin, 20 μg/mL aprotinin, 20 μg/mL antipain, 0.2 mM PMSF). Aminooxy biotin was added to a final concentration of 2 mM, and the biotinylation reactions were incubated with gentle shaking for 12 h at 37° C. Reactions were aliquoted for analysis and stopped by boiling in SDS-PAGE loading dye. Proteins were resolved by 10% SDS-PAGE, electrophoretically transferred to nitrocellulose, and probed with streptavidin-HRP. […]

[2] = biological target: T1, Y289L GalT; test: Labeling of the O-GlcNAc peptide with ketone analogue 1 by mutant Y289L GalT (LC-MS); type: biochemical, bovine; conditions: peptide TAPTS(O-GlcNAc)TIAPG 10 μM, analogue 1 1 mM, 6 h at 4° C.
Method: Labeling of the O-GlcNAc Peptide: The peptide TAPTS(O-GlcNAc)TIAPG (10 μM was dissolved in 25 mM MOPS buffer, pH 6.7 containing 5 mM MnCl2 and 8 μM reference peptide (ThermoFinnigan, San Jose, Calif.). Ketone analogue 1 and mutant Y289L GalT were added to final concentrations of 1 mM and 100 ng/μL, respectively. Prior to enzyme addition, an aliquot of the reaction was removed as an initial time point for LC-MS analysis. Reactions were incubated at 4° C. for 6 h, after which an aliquot of the reaction mixture was removed for product analysis by LC-MS. The remainder of the reaction was diluted 5-fold into PBS (final concentration: 10.1 mM Na2HPO4, 1.76 mM KH2 HPO4, 137 mM NaCl, 2.7 mM KCl, pH 6.7), and N-(aminooxyacetyl)-N′-(D-biotinoyl) hydrazine (Molecular Probes, Eugene, Oreg.) was added to a final concentration of 12 mM. After 8 h at 25° C., the extent of biotin-oxime product was measured by LC-MS. […] Labeling reactions with wild-type GalT were performed identically, with the exception that reactions were incubated at 37° C. for 12 h. […]
For the aminooxy biotin reaction, formation of the oxime product was monitored using an extracted ion chromatogram within the mass range 1319.0-1321.0 m/z and 1633.0-1635.5 m/z, which was generated post-acquisition via the Xcalibur™ software. […]

`CC(=O)C[C@H]1[C@@H](OP(=O)(O)OP(=O)(O)OC[C@H]2O[C@@H](n3ccc(=O)[nH]c3=O)[C@H](O)[C@@H]2O)O[C@H](CO)[C@H](O)[C@@H]1O.N.N` [analogue 1, Uridine 5′-diphospho-2-acetonyl-2deoxy-α-D-galactopyranose diammonium salt] was tested, and the “labeling of glycosylated CREB (chemiluminescence)” value ([1]; diammonium salt) was “Strong, selective labeling”, the “labeling of glycosylated CREB (chemiluminescence)” value ([1]; listed as 1, diammonium salt) was “Strong labeling” and the “conversion of the peptide to the ketone-labeled product” value [2] was “complete conversion”.
